The source made the active and inactive calls. The calls are words filed in the database; no cut-off is given here.
Experiments:
3T3-L1 [1] = assay: Downregulation of CPT-1 gene expression in mouse 3T3L1 cells at […] after 4 days by RT-PCR analysis; assay type: functional, cell-based
3T3-L1 [2] = assay: Downregulation of ACC-1 gene expression in mouse 3T3L1 cells at […] after 4 days by RT-PCR analysis relative to insulin; assay type: functional
3T3-L1 [3] = assay: Upregulation of PGC-1 gene expression in mouse 3T3L1 cells at […] after 4 days by RT-PCR analysis relative to control; assay type: functional, cell-based
3T3-L1 [4] = assay: Downregulation of ACC-1 gene expression in mouse 3T3L1 cells at […] after 4 days by RT-PCR analysis relative to untreated control; assay type: functional
3T3-L1 [5] = assay: Upregulation of CPT-1 gene expression in mouse 3T3L1 cells at […] after 4 days by RT-PCR analysis relative to untreated control; assay type: functional, cell-based
3T3-L1 [6] = assay: Upregulation of CPT-1 gene expression in mouse 3T3L1 cells at […] after 4 days by RT-PCR analysis relative to insulin; assay type: functional

SMILES	Activity (3T3-L1 [1])	fold change (FC) (3T3-L1 [2])	Activity (3T3-L1 [3])	fold change (FC) (3T3-L1 [4])	Activity (3T3-L1 [4])	Activity (3T3-L1 [5])	Activity (3T3-L1 [6])	fold change (FC) (3T3-L1 [6])
CCCCCCCCNC(=S)N/N=C\c1ccc(OCc2cn(Cc3ccccc3)nn2)cc1	Active	4	Active	4				
OCCCCCCNC(=S)N/N=C\c1ccc(OCc2cn(Cc3ccccc3)nn2)cc1			Active		Active	Active	Active	
OCCNC(=S)N/N=C\c1ccc(OCc2cn(Cc3ccccc3)nn2)cc1	Active		inactive		inactive			
CCCCCNC(=S)N/N=C\c1ccc(OCc2cn(Cc3ccccc3)nn2)cc1			Active		Active	Active		2
S=C(NCCc1ccccc1)N/N=C\c1ccc(OCc2cn(Cc3ccccc3)nn2)cc1		2	Active	2		Active	Active	
CC(C)CNC(=S)N/N=C\c1ccc(OCc2cn(Cc3ccccc3)nn2)cc1		2	Active	2		Active		5
CN(C)CCNC(=S)N/N=C\c1ccc(OCc2cn(Cc3ccccc3)nn2)cc1		2	inactive	2		Active		3
